Tested on: PDC KRAS tumor spheroids with HUVEC/MSC, viability
Test: Anticancer human tumor 349418-098-R-PDC patient-derived lung adenocarcinoma cell line growth inhibition [KRAS2]
Conditions: for IC50: curve of first compound; for viability, T/C: stronger effect = lower value
Procedure, shortened: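 Combination screen of spheroid viability in tumor-cell co-cultures with endothelial (HUVEC) and mesenchymal stem cell stroma. Each agent was tested in half-log dilutions, topping at clinical Cmax or at 10 microM without a known Cmax.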

[1] = second compound 0.1 µM, first compound 0.0316 µM
[2] = second compound 0.1 µM, first compound 0.1 µM
[3] = second compound 0.1 µM, first compound 0.316 µM
[4] = second compound 0.1 µM, first compound 1 µM
[5] = second compound 0.316 µM, first compound 0.0316 µM
[6] = second compound 0.316 µM, first compound 0.1 µM
[7] = second compound 0.316 µM, first compound 0.316 µM
[8] = second compound 0.316 µM, first compound 1 µM
[9] = second compound 1 µM, first compound 0.0316 µM
[10] = second compound 1 µM, first compound 0.1 µM
[11] = second compound 1 µM, first compound 0.316 µM
[12] = second compound 1 µM, first compound 1 µM
[13] = second compound 3.16 µM, first compound 0.0316 µM
[14] = second compound 3.16 µM, first compound 0.1 µM
[15] = second compound 3.16 µM, first compound 0.316 µM
[16] = second compound 3.16 µM, first compound 1 µM
[17] = second compound 10 µM, first compound 0.0316 µM
[18] = second compound 10 µM, first compound 0.1 µM
[19] = second compound 10 µM, first compound 0.316 µM
[20] = second compound 10 µM, first compound 1 µM
[21] = second compound 0.1 µM, first compound 0.00316 µM
[22] = second compound 0.1 µM, first compound 0.01 µM
[23] = second compound 0.316 µM, first compound 0.00316 µM
[24] = second compound 0.316 µM, first compound 0.01 µM
[25] = second compound 1 µM, first compound 0.00316 µM
[26] = second compound 1 µM, first compound 0.01 µM
[27] = second compound 3.16 µM, first compound 0.00316 µM
[28] = second compound 3.16 µM, first compound 0.01 µM
[29] = second compound 10 µM, first compound 0.00316 µM
[30] = second compound 10 µM, first compound 0.01 µM
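Also: spheroids exposed to compounds for seven days before readout.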

## COC(=O)c1ccc2c(C(=Nc3ccc(N(C)C(=O)CN4CCN(C)CC4)cc3)c3ccccc3)c(O)[nH]c2c1 + C=CC(=O)N1CCN(c2nc(=O)n(-c3c(C)ccnc3C(C)C)c3nc(-c4c(O)cccc4F)c(F)cc23)C(C)C1
Second compound 0.1 µM
  IC50: 157 nM
Second compound 0.316 µM
  IC50: 226 nM
Second compound 1 µM
  IC50: 242 nM
Second compound 3.16 µM
  IC50: 106 nM
Second compound 10 µM
  IC50: < 31.6 nM
[1]
  viability, T/C: 88.1%
[2]
  viability, T/C: 49.6%
[3]
  viability, T/C: 47.2%
[4]
  viability, T/C: 26.5%
Second compound 0.1 µM, first compound 3.16 µM
  viability, T/C: 14.8%
Second compound 0.1 µM, first compound 10 µM
  viability, T/C: 15.1%
[5]
  viability, T/C: 94.5%
[6]
  viability, T/C: 63.1%
[7]
  viability, T/C: 47.1%
[8]
  viability, T/C: 27.9%
Second compound 0.316 µM, first compound 3.16 µM
  viability, T/C: 17.2%
Second compound 0.316 µM, first compound 10 µM
  viability, T/C: 15.5%
[9]
  viability, T/C: 107%
[10]
  viability, T/C: 73.2%
[11]
  viability, T/C: 39.8%
[12]
  viability, T/C: 30.4%
Second compound 1 µM, first compound 3.16 µM
  viability, T/C: 18.1%
Second compound 1 µM, first compound 10 µM
  viability, T/C: 13.7%
[13]
  viability, T/C: 72.4%
[14]
  viability, T/C: 47.9%
[15]
  viability, T/C: 35.7%
[16]
  viability, T/C: 28.4%
Second compound 3.16 µM, first compound 3.16 µM
  viability, T/C: 11.6%
Second compound 3.16 µM, first compound 10 µM
  viability, T/C: 10.9%
[17]
  viability, T/C: 40%
[18]
  viability, T/C: 35.2%
[19]
  viability, T/C: 31.4%
[20]
  viability, T/C: 25.3%
Second compound 10 µM, first compound 3.16 µM
  viability, T/C: 5.38%
Second compound 10 µM, first compound 10 µM
  viability, T/C: 1.56%

## Cn1ncnc1[C@H]1c2n[nH]c(=O)c3cc(F)cc(c23)N[C@@H]1c1ccc(F)cc1 + COc1cc2nc(C)nc(NC(C)c3cc(N)cc(C(F)(F)F)c3)c2cc1OC1CCOC1
Second compound 0.1 µM
  IC50: > 100 nM
Second compound 0.316 µM
  IC50: > 100 nM
Second compound 1 µM
  IC50: > 100 nM
Second compound 3.16 µM
  IC50: > 100 nM
Second compound 10 µM
  IC50: < 0.316 nM
Second compound 0.1 µM, first compound 0.000316 µM
  viability, T/C: 103%
Second compound 0.1 µM, first compound 0.001 µM
  viability, T/C: 99.9%
[21]
  viability, T/C: 100%
[22]
  viability, T/C: 95.8%
[1]
  viability, T/C: 91.6%
[2]
  viability, T/C: 82.4%
Second compound 0.316 µM, first compound 0.000316 µM
  viability, T/C: 97%
Second compound 0.316 µM, first compound 0.001 µM
  viability, T/C: 92.7%
[23]
  viability, T/C: 97.2%
[24]
  viability, T/C: 89.5%
[5]
  viability, T/C: 88.3%
[6]
  viability, T/C: 81.1%
Second compound 1 µM, first compound 0.000316 µM
  viability, T/C: 97.3%
Second compound 1 µM, first compound 0.001 µM
  viability, T/C: 97%
[25]
  viability, T/C: 93.9%
[26]
  viability, T/C: 87.5%
[9]
  viability, T/C: 83.4%
[10]
  viability, T/C: 77.7%
Second compound 3.16 µM, first compound 0.000316 µM
  viability, T/C: 92.5%
Second compound 3.16 µM, first compound 0.001 µM
  viability, T/C: 88.6%
[27]
  viability, T/C: 86.3%
[28]
  viability, T/C: 85.2%
[13]
  viability, T/C: 74.1%
[14]
  viability, T/C: 78.1%
Second compound 10 µM, first compound 0.000316 µM
  viability, T/C: 36.2%
Second compound 10 µM, first compound 0.001 µM
  viability, T/C: 20.6%
[29]
  viability, T/C: 23%
[30]
  viability, T/C: 23.2%
[17]
  viability, T/C: 31%
[18]
  viability, T/C: 24.3%

## CCN1CCN(Cc2ccc(Nc3ncc(F)c(-c4cc(F)c5nc(C)n(C(C)C)c5c4)n3)nc2)CC1 + CNCc1ccccc1-c1csc(C(C)Nc2nc(C)nc3cc(OC)c(OC)cc23)c1
Second compound 0.1 µM
  IC50: 7.79 nM
Second compound 0.316 µM
  IC50: 3.7 nM
Second compound 1 µM
  IC50: < 3.16 nM
Second compound 3.16 µM
  IC50: < 3.16 nM
Second compound 10 µM
  IC50: < 3.16 nM
[21]
  viability, T/C: 71%
[22]
  viability, T/C: 45.5%
[1]
  viability, T/C: 21.4%
[2]
  viability, T/C: 14.4%
[3]
  viability, T/C: 11.6%
[4]
  viability, T/C: 3.5%
[23]
  viability, T/C: 53.5%
[24]
  viability, T/C: 31.7%
[5]
  viability, T/C: 15.1%
[6]
  viability, T/C: 16.1%
[7]
  viability, T/C: 10.9%
[8]
  viability, T/C: 2.1%
[25]
  viability, T/C: 34.4%
[26]
  viability, T/C: 11.7%
[9]
  viability, T/C: 4.86%
[10]
  viability, T/C: 5.28%
[11]
  viability, T/C: 2.85%
[12]
  viability, T/C: 2.48%
[27]
  viability, T/C: 0.3%
[28]
  viability, T/C: 0.05%
[13]
  viability, T/C: 4.57%
[14]
  viability, T/C: 0.17%
[15]
  viability, T/C: 0.02%
[16]
  viability, T/C: 0.07%
[29]
  viability, T/C: 0.18%
[30]
  viability, T/C: 0.06%
[17]
  viability, T/C: 0.06%
[18]
  viability, T/C: 0.1%
[19]
  viability, T/C: 0.07%
[20]
  viability, T/C: 0.1%
